Tests used:
[1] = molecular target: T1, FLAG-tagged Vanin-1 (AA 22-493, T26I) (Homo sapiens, UniProt O95497, T26I); test: Vanin-1 enzymatic assay; format: biochemical; details: 0.1 nM Vanin-1, 3 μM D-pantethine, pantothenic acid formation by RapidFire MS; geometric mean if multiple measurements; read-out: VNN-1 IC50
T1 construct: FLAG-tagged Vanin-1 (AA 22-493, T26I, produced internally); FLAG; made in house
T1 sequence (O95497 22-493 T26I): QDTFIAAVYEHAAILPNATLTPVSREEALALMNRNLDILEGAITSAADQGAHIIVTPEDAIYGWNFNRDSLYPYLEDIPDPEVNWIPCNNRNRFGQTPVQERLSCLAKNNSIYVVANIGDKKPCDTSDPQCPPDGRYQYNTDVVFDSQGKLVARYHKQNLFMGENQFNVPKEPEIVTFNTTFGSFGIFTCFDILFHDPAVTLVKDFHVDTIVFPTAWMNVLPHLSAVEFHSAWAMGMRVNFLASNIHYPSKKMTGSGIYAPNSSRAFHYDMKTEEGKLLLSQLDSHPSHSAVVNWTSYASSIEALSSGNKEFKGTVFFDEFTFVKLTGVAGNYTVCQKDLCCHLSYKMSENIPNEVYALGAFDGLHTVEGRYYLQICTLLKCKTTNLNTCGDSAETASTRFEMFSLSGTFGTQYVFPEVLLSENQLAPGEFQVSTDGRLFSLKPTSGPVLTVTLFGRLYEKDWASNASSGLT
Description: The test compounds are dissolved in 100% DMSO at a concentration of 10 mM and in a first step diluted in DMSO to a concentration of 5 mM, followed by serial dilution steps in 100% DMSO. Dilution factor and number of dilution steps may vary according to needs. Typically 8 different concentrations by 1:5 dilutions are prepared, a further intermediate dilutions of the substances is carried out with assay buffer resulting in 1% final DMSO concentration in the assay.
0.1 nM of FLAG-tagged Vanin-1 (AA 22-493, T26I, produced internally) and test compounds are incubated at room temperature for 20 minutes in assay buffer (1 mM DTT, 0.0025% Brij-35, 50 mM HEPES, pH7.5). D-Pantethine (Sigma, Cat #P2125-5G) in assay buffer is added (final concentration 3 μM) and incubated for additional 30 minutes at room temperature. Total assay volume typically is 40 μl but might be adjusted according to needs. Reaction is stopped by adding equal volume of stop solution as the reaction mixture to reach 100 nM HD-pantothenic acid (as an internal standard) and 1% TFA. Assay plates are centrifuged for 2 minutes and the formation of pantothenic acid is detected by RapidFire Mass Spectrometry (mobile phase A: 0.1% formic acid and 0.01% trifluoroacetic acid in water; mobile phase B: 47.5% acetonitrile, 47.5% methanol, 0.1% formic acid and 0.01% trifluoroacetic acid in water) using a C18, 12 μL cartridge (Agilent Cat #G9205A).
The values given in Table I result from measurements of one or more samples. In case of multiple measurements the geometric mean values are given.

Pantetheinase (vanin) = test: Human Whole Blood assay; format: cell-based; details: pantethine substrate, pantothenic acid formation by RapidFire MS, read-out: HWB IC50
Description: Human Whole Blood assay: Pantetheinase (vanin) converts panteheine into pantothenic acid and cysteamine. Accordingly, in the described protocol vanin activity is quantified by formation of pantothenic acid after pantetheine supplementation via pantethine. The assay is applicable to identify vanin inhibitors. Compound stocks are dissolved in DMSO at 10 mM. Further dilutions are performed in RPMI 1640 medium (Gibco, #A-10491-01) and final concentrations in the assay are 0.032 nM-500 nM.
Human blood is drawn into a blood bag (1% heparin, 50 I.E./mL). Blood is aliquoted into cavities of 96-deep-well plates at 290 μL and mixed with 10 μL compound solution or vehicle (30 sec at 1400 rpm on a shaker). Equilibration follows at room temperature, 250 rpm and for 30 min. The assay is starts by adding 10 μL of substrate solution (20 μM pantethine in 1 mM DTT, 0.0025% Brij-35, 50 mM HEPES, pH7.5) to each well, except for some blank wells which receive […] substrate buffer (1 mM DTT, 0.0025% Brij-35, 50 mM HEPES, pH7.5) only. Samples are thoroughly shaken (30 sec, 1400 rpm) and reaction is allowed to take place at room temperature, 250 rpm and for 5 min. The reaction is stopped by addition of a vanin tool inhibitor in excess (BI-1 total conc. 10 μM). Centrifugation of the plate follows at 4° C., 665 G for 10 min. Then the blood plasma samples (100 μL) are transferred into another 96-deep-well plate and proteins are precipitated (5 min on ice) by adding 100 μL of ice cold precipitation solution (1 μM labelled pantothenic acid (di-β-alanine-13C6,15N2 calcium salt, Sigma, #705837) in acetonitrile). Afterwards the plate is centrifuged (4° C., 3220 G, 10 min) and supernatants (50 μL) are collected into another 96-deep-well plate and mixed (10 sec, 1400 rpm) with 150 μL ice cold formic acid (0.1%, Carl Roth GmbH+Co.KG, #CP03.1). The formation of pantothenic acid is detected by RapidFire Mass Spectrometry. A TripleQuad 6500+ (ABSciex, Germany) is equipped with an LC-1290 system, a RapidFire autosampler (Agilent, Germany) and a C18 cartridge Type C 12 μL (Agilent Cat #G9526-80000). Mobile phase A is consisting of 0.09% formic acid and 0.01% trifluoroacetic acid in water and mobile phase B of 0.09% formic acid and 0.01% trifluoroacetic acid in acetonitrile/methanol/water=47.5/47.5/5.

Row | Structure (SMILES) | IC50 [1] [nM] | IC50 (Pantetheinase (vanin)) [nM]
1 | CC(=O)N(C)[C@H]1CCN(C(=O)c2ccc(NC(C)c3nccs3)nc2)C1 (single isomer, unassigned) [Example 5.1.A] | 0.09 | 1.82
2 | CC(=O)N(C)[C@H]1CCN(C(=O)c2ccc(NC(C)c3nccs3)nc2)C1 (single isomer, unassigned) [Example 5.1.B] | 0.94 | –
3 | CC(=O)N(C)[C@H]1CCN(C(=O)c2ccc(NC(C)c3cccnc3)nc2)C1 (single isomer, unassigned) [Example 6.1.A] | 0.09 | 2.59
4 | CC(=O)N(C)[C@H]1CCN(C(=O)c2ccc(NC(C)c3cccnc3)nc2)C1 (single isomer, unassigned) [Example 6.1.B] | 1.43 | –
5 | CC(=O)N(C)[C@H]1CCN(C(=O)c2ccc(NC3CCc4ncccc43)nc2)C1 (single isomer, unassigned) [Example 8.8] | 0.19 | 1.95
6 | CC(=O)N(C)[C@H]1CCN(C(=O)c2ccc(NC3CCc4ncccc43)nc2)C1 (single isomer, unassigned) [Example 8.14] | 8.56 | 76.4
7 | CC(=O)N(C)[C@H]1CCN(C(=O)c2ccc(NCc3cccc(C#N)c3)nc2)C1 [Example 1.1, N-[(3S)-1-(6-{[(3-Cyanophenyl)methyl]amino}pyridine-3-carbonyl)pyrrolidin-3-yl]-N-methylacetamide] | 1.27 | 5.04
8 | CC(=O)N(C)[C@H]1CCN(C(=O)c2ccc(N[C@@H](C)c3ccccc3)nc2)C1 [Example 1.2] | 0.2 | 4.51
9 | CC(=O)N(C)[C@H]1CCN(C(=O)c2ccc(NCc3cccc(Cl)c3)nc2)C1 [Example 1.3] | 1.02 | 1.03
10 | CC(=O)N(C)[C@H]1CCN(C(=O)c2ccc(NCc3ccccc3Cl)nc2)C1 [Example 1.4] | 0.48 | 4.85
11 | Cc1ccncc1CNc1ccc(C(=O)N2CC[C@H](N(C)C(=O)C3CC3)C2)cn1 [Example 1.5] | 0.07 | 1.59
12 | CC(=O)N(C)[C@H]1CCN(C(=O)c2ccc(NCc3ccccc3)nc2)C1 [Example 1.6] | 0.81 | 2.34
13 | CN(C(=O)C1(C)CCC1)[C@H]1CCN(C(=O)c2ccc(NCc3cccnc3Cl)nc2)C1 [Example 1.7] | 0.12 | –
14 | CN(C(=O)C1CC1)[C@H]1CCN(C(=O)c2ccc(NCc3ccc(Cl)nc3)nc2)C1 [Example 1.13] | 0.17 | –
15 | CNC(=O)c1cccc([C@H](C)Nc2ccc(C(=O)N3CC[C@H](N(C)C(C)=O)C3)cn2)c1 [Example 1.25] | 0.27 | –
16 | CN(C(=O)C1(C)CCC1)[C@H]1CCN(C(=O)c2ccc(NCc3ccc(Cl)nc3)nc2)C1 [Example 1.28] | 0.32 | –
17 | COC(=O)c1cccc(C(C)Nc2ccc(C(=O)N3CC[C@H](N(C)C(C)=O)C3)cn2)c1 (stereo partly drawn) [Example 1.29] | 0.34 | –
18 | CC(=O)N(C)[C@H]1CCN(C(=O)c2ccc(NCc3ccc(N)nc3)nc2)C1 [Example 1.34] | 0.47 | –
19 | CC(=O)N(C)[C@H]1CCN(C(=O)c2ccc(NC3CCc4[nH]ncc43)nc2)C1 (stereo partly drawn) [Example 1.35] | 0.53 | –
20 | CC(=O)Nc1cccc(C(C)Nc2ccc(C(=O)N3CC[C@H](N(C)C(C)=O)C3)cn2)c1 (stereo partly drawn) [Example 1.36] | 0.54 | –
21 | CN(C(=O)C1(C)CCC1)[C@H]1CCN(C(=O)c2ccc(NCc3cnccc3C(F)(F)F)nc2)C1 [Example 1.39] | 0.66 | –

Row | Structure (SMILES) | IC50 [1] [nM] | IC50 (Pantetheinase (vanin)) [nM]
22 | CC(=O)N(C)[C@H]1CCN(C(=O)c2ccc(NCc3cncc(Br)c3)nc2)C1 [Example 1.41] | 0.77 | –
23 | CC(=O)N(C)[C@H]1CCN(C(=O)c2ccc(N[C@@H](C)c3cccc(S(=O)(=O)N(C)C)c3)nc2)C1 [Example 1.45] | 0.94 | –
24 | CN(C)c1ccc(CNc2ccc(C(=O)N3CC[C@H](N(C)C(=O)C4(C)CCC4)C3)cn2)cn1 [Example 1.46] | 0.96 | –
25 | CC(=O)N(C)[C@H]1CCN(C(=O)c2ccc(NCc3cccc(-c4nc(CC(F)(F)F)no4)c3)nc2)C1 [Example 1.48] | 0.98 | –
26 | CC(=O)N(C)[C@H]1CCN(C(=O)c2ccc(NCc3cccnn3)nc2)C1 [Example 1.49] | 1.04 | –
27 | CC(=O)N(C)[C@H]1CCN(C(=O)c2ccc(NCc3ccccn3)nc2)C1 [Example 1.56] | 1.65 | –
28 | CC[C@H](Nc1ccc(C(=O)N2CC[C@H](N(C)C(C)=O)C2)cn1)c1ccc(C(F)F)cc1 [Example 1.62] | 2.36 | –
29 | C[C@H](Nc1ccc(C(=O)N2CC[C@H](N(C)C(=O)C3(C)CCC3)C2)cn1)c1cnccn1 [Example 1.76] | 4.33 | –
30 | CC(=O)N(C)[C@H]1CCN(C(=O)c2ccc(NC3CCCc4cn[nH]c43)nc2)C1 (stereo partly drawn) [Example 1.81] | 6.99 | –
31 | CC(=O)N(C)[C@H]1CCN(C(=O)c2ccc(NCc3ccncc3)nc2)C1 [Example 1.87] | 8.45 | –
32 | CC(=O)N(C)[C@H]1CCN(C(=O)c2ccc(NCc3cc(CC(C)C)n[nH]3)nc2)C1 [Example 1.88] | 8.83 | –
33 | CC(=O)N(C)[C@H]1CCN(C(=O)c2ccc(NCc3ccnn3C)nc2)C1 [Example 1.90] | 9.37 | –
34 | CN(C(=O)C1CC(F)(F)C1)[C@H]1CCN(C(=O)c2ccc(NC(C)(C)c3ccccc3)nc2)C1 [Example 2.3] | 0.09 | –
35 | CC(=O)N(C)[C@H]1CCN(C(=O)c2ccc(NC3(c4ccccc4)CCC3)nc2)C1 [Example 4.6] | 0.21 | –
36 | CN(C(=O)C1(C)CCC1)[C@H]1CCN(C(=O)c2ccc(NC(C)(C)c3cccnc3)nc2)C1 [Example 8.1, N,1-Dimethyl-N-[(3S)-1-(6-{[2-(pyridin-3-yl)propan-2-yl]amino}pyridine-3-carbonyl)pyrrolidin-3-yl]cyclobutane-1-carboxamide] | 0.11 | –
37 | O=C(N[C@H]1CCN(C(=O)c2ccc(NC3(c4cncnc4)CC3)nc2)C1)C1CC1 [Example 8.13] | 4.28 | –
38 | CC(=O)N(C)[C@H]1CCN(C(=O)c2ccc(NC3(c4ccc(Cl)cc4)CCC3)nc2)C1 [Example 9.2] | 0.15 | –
39 | CC(=O)N(C)[C@H]1CCN(C(=O)c2ccc(NC(C)c3ccccc3)nc2)C1 (stereo partly drawn) [Example 9.7] | 0.72 | –
40 | CC(=O)N(C)[C@H]1CCN(C(=O)c2ccc(NC(C)c3cccc(C(N)=O)c3)nc2)C1 (stereo partly drawn) [Example 10.1, 3-[1-({5-[(3S)-3-(N-Methylacetamido)pyrrolidine-1-carbonyl]pyridin-2-yl}amino)ethyl]benzamide] | 0.35 | –
41 | CC(=O)N(C)[C@H]1CCN(C(=O)c2ccc(N[C@@H](C)c3ccc(C#N)nc3)nc2)C1 [Example 11.1, N-[(3S)-1-(6-{[(1S)-1-(6-cyanopyridin-3-yl)ethyl]amino}pyridine-3-carbonyl)pyrrolidin-3-yl]-N-methylacetamide] | 0.74 | –

Source: patent US12240828B2, “Heteroaromatic compounds as vanin inhibitors” (Boehringer Ingelheim International GmbH, priority 2018, dated 2025)
